Earlier results on 3 molecules are cited in US20220287943A1, “METHOD FOR TREATING KERATIN MATERIAL, COMPRISING THE APPLICATION OF AN ORGANIC C1-C6-ALKOXY-SILANE AND AN AMINO ACID AND/OR AMINO ACID DERIVATIVE” (Henkel AG & Co. KGaA, priority 2019, published 2022).

For this series the following is noted: for solubility in water: about 25° C.

Turning to `O=S(=O)([O-])c1ccc(N=Nc2c(O)ccc3ccccc23)cc1.[Na+]` [Acid Orange 7, sodium salt of 4-[(2-hydroxy-1-naphthy)azo]lbenzene sulphonate], the solubility in water result is on record as “more than 7 g/L”.
As to `Nc1cc(S(=O)(=O)[O-])cc2cc(S(=O)(=O)[O-])c(N=Nc3ccccc3)c(O)c12.[Na+].[Na+]` [Acid Red 33, diantrium salt of 5-amino-4-hydroxy-3-(phenylazo)-naphthalene-2,7-disulphonate], the solubility in water entry is “about 2.5 g/L”.
`O=C([O-])C1=NN(c2ccc(S(=O)(=O)[O-])cc2)C(=O)C1N=Nc1ccc(S(=O)(=O)[O-])cc1.[Na+].[Na+].[Na+]` (stereo not drawn) [Acid Yellow 23, trisodium salt of 4,5-dihydro-5-oxo-1-(4-sulfophenyl)-4-((4-sulfophenyl)azo)-1H-pyrazole-3-carboxylic acid]: the “solubility in water (in words)” value (at about 25° C.) is “highly soluble in water”.
